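Dose response: 5 concentrations. Exposure: 48 h. Format: 96-well plates. Endpoint: linear interpolation; highest concentration if not reached. GI50: concentration for 50% inhibition of growth. TGI marks complete inhibition of growth.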
How the values were obtained:
Experiment in all cases: NCI tumour cell line growth inhibition, 48 h; in the data active = GI50 below about 0.43 µM; inactive = the rest
[1] = test system: TK-10 renal
[2] = test system: NCI-H460 lung
[3] = test system: OVCAR-5 ovarian
[4] = test system: HT29 colon
[5] = test system: K-562 leukemia
[6] = test system: SR leukemia
[7] = test system: SK-MEL-2 melanoma
[8] = test system: SF-295 CNS
[9] = test system: OVCAR-8 ovarian
[10] = test system: ACHN renal
[11] = test system: SN12C renal
[12] = test system: NCI-H522 lung
[13] = test system: SNB-75 CNS
[14] = test system: HOP-18 NSCLC
[15] = test system: UACC-62 melanoma
[16] = test system: SF-539 CNS
[17] = test system: RXF 393 renal
[18] = test system: RPMI-8226 leukemia
[19] = test system: UACC-257 melanoma
[20] = test system: DMS 114 small cell lung
[21] = test system: LOX IMVI melanoma
[22] = test system: HCT-15 colon
[23] = test system: HOP-62 NSCLC
[24] = test system: COLO 205 colon
[25] = test system: M19-MEL melanoma
[26] = test system: DLD-1 colon
[27] = test system: OVCAR-3 ovarian
[28] = test system: U251 CNS
[29] = test system: XF 498 CNS
[30] = test system: 786-0 renal
[31] = test system: SK-MEL-5 melanoma
[32] = test system: HOP-92 NSCLC
[33] = test system: MOLT-4 leukemia
[34] = test system: RXF-631 renal
[35] = test system: SW-620 colon
[36] = test system: HCT-116 colon
[37] = test system: HL-60(TB) leukemia
[38] = test system: NCI-H226 lung
[39] = test system: OVCAR-4 ovarian
[40] = test system: CCRF-CEM leukemia
[41] = test system: SF-268 CNS
[42] = test system: LXFL 529 NSCLC
[43] = test system: KM20L2 colon
[44] = test system: KM12 colon
[45] = test system: DMS 273 small cell lung
[46] = test system: SK-MEL-28 melanoma
[47] = test system: IGROV1 ovarian
[48] = test system: SNB-78 CNS
[49] = test system: A549 NSCLC
[50] = test system: SNB-19 CNS
[51] = test system: EKVX NSCLC
[52] = test system: CAKI-1 renal
[53] = test system: NCI-H23 lung
[54] = test system: SK-OV-3 ovarian
[55] = test system: UO-31 renal
[56] = test system: M14 melanoma
[57] = test system: A498 renal
[58] = test system: MALME-3M melanoma
[59] = test system: HCC-2998 colon
[60] = test system: P388 leukemia
[61] = test system: SN12K1 renal
[62] = test system: MCF7 breast
[63] = test system: P388/ADR leukemia
[64] = test system: NCI/ADR-RES ovarian

CC#CCC1CCC(OCC)=CC1=O (stereo not drawn)
> 100 µM: TGI [1] | TGI [2] | TGI [3] | TGI [4] | TGI [5] | TGI [6] | TGI [7] | TGI [8] | TGI [9] | TGI [10] | TGI [11] | TGI [12] | TGI [13] | TGI [14] | TGI [15] | TGI [16] | TGI [17] | TGI [18] | TGI [19] | TGI [20] | TGI [21] | TGI [22] | TGI [23] | TGI [24] | TGI [25] | TGI [26] | TGI [27] | TGI [28] | TGI [29] | TGI [30] | TGI [31] | TGI [32] | TGI [33] | TGI [34] | TGI [35] | TGI [36] | TGI [37] | TGI [38] | TGI [39] | TGI [40] | TGI [41] | TGI [42] | TGI [43] | TGI [44] | TGI [45] | TGI [46] | TGI [47] | TGI [48] | TGI [49] | TGI [50] | TGI [51] | TGI [52] | TGI [53] | TGI [54] | TGI [55] | TGI [56]

COc1ccc(C=O)c([N+](=O)[O-])c1
66.9 µM: TGI [20]
> 100 µM: TGI [1] | TGI [2] | TGI [7] | TGI [9] | TGI [10] | TGI [11] | TGI [12] | TGI [13] | TGI [14] | TGI [15] | TGI [17] | TGI [18] | TGI [57] | TGI [19] | TGI [21] | TGI [22] | TGI [23] | TGI [24] | TGI [25] | TGI [27] | TGI [28] | TGI [29] | TGI [30] | TGI [31] | TGI [32] | TGI [33] | TGI [34] | TGI [35] | TGI [58] | TGI [38] | TGI [39] | TGI [41] | TGI [44] | TGI [46] | TGI [47] | TGI [48] | TGI [49] | TGI [50] | TGI [51] | TGI [53] | TGI [54] | TGI [55] | TGI [56]
64.9 µM: TGI [8]
23.6 µM: TGI [37]
36 µM: TGI [5]
63.8 µM: TGI [4]
26.4 µM: TGI [36]
47.2 µM: TGI [16]
76.3 µM: TGI [40]
95.1 µM: TGI [45]
45.2 µM: TGI [43]

Cc1[nH]c2ccccc2c1C(=O)CC1(O)C(=O)Nc2c(Cl)cc(Cl)cc21 (stereo not drawn)
37.6 µM: TGI [37]
98.3 µM: TGI [52]
54.8 µM: TGI [6]
36.1 µM: TGI [58]
60.9 µM: TGI [55]
81 µM: TGI [7]
32.8 µM: TGI [29]
96.3 µM: TGI [49]
52 µM: TGI [35]
53.5 µM: TGI [10]
> 100 µM: TGI [59] | TGI [1] | TGI [2] | TGI [4] | TGI [13] | TGI [22] | TGI [23] | TGI [26] | TGI [28] | TGI [30] | TGI [34] | TGI [36] | TGI [44] | TGI [45] | TGI [47] | TGI [48] | TGI [50] | TGI [54]
62 µM: TGI [46]
30.8 µM: TGI [42]
53.9 µM: TGI [56]
53.8 µM: TGI [18]
52.1 µM: TGI [3]
55.1 µM: TGI [33]
44 µM: TGI [27]
72.5 µM: TGI [21]
31.5 µM: TGI [19] | TGI [31]
67.4 µM: TGI [57]
70.4 µM: TGI [9]
42.7 µM: TGI [38]
44.5 µM: TGI [53]
39.2 µM: TGI [17]
24.6 µM: TGI [25]
61.7 µM: TGI [16] | TGI [24]
32.9 µM: TGI [12]
44.9 µM: TGI [20]
58 µM: TGI [5]
21.8 µM: TGI [39]
47.9 µM: TGI [40]
57.3 µM: TGI [41]
55.6 µM: TGI [11]
56.2 µM: TGI [8]
85.6 µM: TGI [14]

CCN(CC)c1ccc2cc(C(=O)Nc3ccc4[nH]c(C(=O)N5C[C@@H](CCl)c6c5cc(OC(=O)Nc5ccccc5)c5[nH]cc(C)c65)cc4c3)oc2c1
633 µM: TGI [3]
inactive: GI50 [2] 39.4 µM | GI50 [3] 264 µM | GI50 [5] 278 µM | GI50 [7] > 1000 µM | GI50 [60] 89.4 µM | GI50 [61] 128 µM | GI50 [12] 438 µM | GI50 [15] 44.5 µM | GI50 [17] 202 µM | GI50 [18] 681 µM | GI50 [20] 254 µM | GI50 [21] 295 µM | GI50 [22] 539 µM | GI50 [23] 104 µM | GI50 [24] > 1000 µM | GI50 [25] 237 µM | GI50 [28] 92.7 µM | GI50 [62] 68.8 µM | GI50 [33] 294 µM | GI50 [35] 207 µM | GI50 [58] 510 µM | GI50 [37] 125 µM | GI50 [39] 428 µM | GI50 [40] 178 µM | GI50 [41] 133 µM | GI50 [45] 70.4 µM | GI50 [46] 401 µM | GI50 [47] 914 µM | GI50 [48] 83.7 µM | GI50 [49] 147 µM | GI50 [51] 448 µM | GI50 [53] 230 µM
624 µM: TGI [37]
0.000864 µM: TGI [57]
235 µM: TGI [28]
9.11e-05 µM: TGI [52]
922 µM: TGI [25]
758 µM: TGI [50]
982 µM: TGI [55]
> 1000 µM: TGI [59] | TGI [4] | TGI [5] | TGI [7] | TGI [9] | TGI [11] | TGI [12] | TGI [13] | TGI [18] | TGI [19] | TGI [20] | TGI [22] | TGI [24] | TGI [27] | TGI [62] | TGI [31] | TGI [32] | TGI [33] | TGI [35] | TGI [58] | TGI [39] | TGI [40] | TGI [43] | TGI [44] | TGI [63] | TGI [46] | TGI [47] | TGI [48] | TGI [49] | TGI [53]
796 µM: TGI [16]
387 µM: TGI [61]
378 µM: TGI [36]
742 µM: TGI [41]

CCCNC(=O)C(C)C1CCC2(C)C=CC(=O)C(C)=C2C1O (stereo not drawn)
> 100 µM: TGI [59] | TGI [2] | TGI [3] | TGI [4] | TGI [5] | TGI [7] | TGI [60] | TGI [8] | TGI [9] | TGI [61] | TGI [11] | TGI [12] | TGI [13] | TGI [14] | TGI [15] | TGI [16] | TGI [17] | TGI [18] | TGI [57] | TGI [19] | TGI [20] | TGI [64] | TGI [21] | TGI [22] | TGI [23] | TGI [24] | TGI [25] | TGI [26] | TGI [27] | TGI [28] | TGI [62] | TGI [29] | TGI [31] | TGI [32] | TGI [33] | TGI [35] | TGI [36] | TGI [37] | TGI [38] | TGI [39] | TGI [40] | TGI [41] | TGI [43] | TGI [44] | TGI [45] | TGI [63] | TGI [46] | TGI [47] | TGI [49] | TGI [50] | TGI [51] | TGI [52] | TGI [53] | TGI [54] | TGI [55]

— PubChem BioAssay (NCI)
